The subject of data set [1] is PI3K pathway signaling in PIK3CA mutant NIH-3T3 cells. Nature of the data set: Western blotting of PI3K effectors, NIH-3T3 cells. The class given is cell-based, mouse. The following applies: BYL719 1 μM, 24 hours, serum starvation, vs single mutant cells. For orientation: In western blotting, separated proteins are transferred to a membrane and probed.
Data set [2] relates to ER+ metastatic breast cancer. Nature of the data set: Phase 1 clinical trial NCT01870505 of alpelisib (BYL719) plus aromatase inhibitor, PFS analysis. The class given is in vivo, human. The following applies: with an aromatase inhibitor; for progression free survival: tumor NGS (FIG. 18C); for PFS (duration of response to PI3K inhibition): tumor and ctDNA NGS (FIG. 17E). Here is the method: Progression-free survival analysis was performed on patients enrolled in NCT01870505, a phase I clinical trial of BYL719 (alpelisib) plus letrozole or exemestane for patients (n=51) with hormone-receptor positive locally-advanced unresectable or metastatic breast cancer. 44/51 patients were analyzed for NGS of their tumors (MSK-IMPACT) and/or NGS of their ctDNA (Guardant) and were included in the analysis. Progression free survival was calculated and was compared between dual and single mutant patients. Clinical benefit rates (complete response, partial response or stable disease) were calculated and were compared between dual and single mutant patients using Fisher's exact test.
(§1) Retrospective PFS analysis was performed on tumors from a large breast cancer dataset (n=1918) sequenced by MSK-IMPACT ((Razavi et al., Cancer Cell 34, 427-438 e426 (2018)). Tumors were included in analysis if both pre- and post-endocrine therapy (aromatase inhibitor or fulvestrant) biopsies confirmed WT, single PIK3CA mutation, or multiple PIK3CA mutations. Kaplan-Meier curves were generated for PFS after firstline aromatase inhibitor or firstline fulvestrant therapy. PFS analysis was performed on patients enrolled in NCT01870505, a phase 1 clinical trial of alpelisib plus letrozole or exemestane for patients with hormone-receptor positive locally-advanced unresectable or metastatic breast cancer. 46/51 patients had biopsy samples that confirmed PIK3CA mutant or WT alleles by tumor NGS, and these 46 patients were included in the final analysis.

In data set [3] the test system is PI3K pathway signaling in PIK3CA mutant MCF10A cells. Nature of the data set: Western blotting of PI3K effectors, MCF10A cells. Particulars: BYL719 1 μM, 24 hours, serum starvation, vs single mutant cells.
The test system of data set [4] is recombinant single and cis mutant PI3Kα complexes. In words: IC50 determination of recombinant PI3K (Transcreener ADP2 fluorescence intensity assay). Particulars: among the recombinant single and cis mutant PI3Kα complexes.
Data set [5] concerns PIK3CA mutant MCF10A cells. Nature of the data set: Cell viability / cell inhibition by PI3K inhibitors (CellTiter-Glo, dose-response survival). The following applies: for sensitivity of cell growth to PI3Kα inhibition: E545K and H1047R major hotspot mutants compared to minor mutants and WT. For orientation: In ATP-based viability assays light output follows the ATP content of the culture.

Data set [6] concerns metastatic ER-positive PIK3CA mutant breast cancer. In words: […] phase III clinical trial of taselisib with fulvestrant, ctDNA PIK3CA analysis. It is filed as in vivo, human. Particulars: for overall response rate: taselisib arm (with fulvestrant). The source says: The present disclosure investigated the effects of multiple PIK3CA mutations on clinical response to PI3Kα inhibitors in metastatic breast cancer. The present disclosure analyzed response data from […], a phase III registrational clinical trial that tested the efficacy of the PI3Kα inhibitor taselisib (GDC-0032), with fulvestrant (an estrogen receptor [ER] degrader) in metastatic ER-positive PIK3CA mutant breast cancer. This is the largest randomized clinical study testing a PI3Kα inhibitor (631 patients).
Many patients with metastatic ER-positive breast cancer enrolled in this trial had bone metastases, which must be decalcified to be analyzed by NGS, which render DNA sequencing particularly challenging (Singh et al., Ann Diagn Pathol 17, 322-326 (2013)). Thus, the present disclosure used circulating tumor DNA (ctDNA), which has been utilized in many breast cancer clinical trials (Baselga et al., Lancet Oncol 18, 904-916 (2017); Andre et al., N Engl J Med 380, 1929-1940 (2019); Baselga et al., N Engl J Med 366, 520-529 (2012); Turner et al., N Engl J Med 373, 209-219 (2015)), to detect the presence of multiple mutations. Of the 631 patients on the trial, 598 had plasma samples available for analysis, of which 508 were adequate for testing (FIG. 19A). Samples were tested using the Foundation One liquid assay, which sequences the entire PIK3CA gene. Of the 339 patients with detected PIK3CA mutations, 66 (19%) had 2 or more PIK3CA mutations.
For analysis of the […] clinical trial (Baselga, Journal of Clinical Oncology, 2018, 36, no. 18_suppl.) patient ctDNA samples (n=631), 508 patient samples met quality control parameters and were analyzed by Foundation Medicine One Liquid assay (Clark et al., J Mol Diagn 20, 686-702 (2018)) which sequences […] of PIK3CA and can detect mutations at amino acid positions 545, 1047, 453, 726, and 1043 (FIG. 24). 339 samples were identified with PIK3CA mutations, of which 66 contained two or more PIK3CA mutations. Patients with measurable disease from the ctDNA PIK3CA mutant cohort, on the taselisib arm, were analyzed based on the percentage change in the sum of longest diameter (SLD) of target lesion from baseline, and were tabulated by waterfall plot. Patients with both measurable and nonmeasurable disease from the ctDNA PIK3CA mutant cohort were assessed on the placebo and taselisib arms for overall response rate (defined as tumor shrinkage >30%). 95% CI for rates were constructed using the Blyth-Still-Casella method. The CI for the difference in ORRs between the two treatment arms were determined using the normal approximation to the binomial distribution. Response rates in the treatment arms were compared (p-value) using the stratified Cochran-Mantel-Haenszel test.

Data set [7] has as its system PIK3CA mutant and WT breast cancers. In words: Retrospective PFS analysis on endocrine therapy (aromatase inhibitor or fulvestrant). The class given is in vivo, human. As to the method:
as §1

For data set [8], the target named is p85α regulatory subunit of PI3Kα (PIK3R1), full length human, hexahistidine-tagged at the N-terminus (UniProt P27986).
Sequence of p85α regulatory subunit of PI3Kα (PIK3R1), full length human, hexahistidine-tagged at the N-terminus (P27986 whole entry, looked up, tested part not stated): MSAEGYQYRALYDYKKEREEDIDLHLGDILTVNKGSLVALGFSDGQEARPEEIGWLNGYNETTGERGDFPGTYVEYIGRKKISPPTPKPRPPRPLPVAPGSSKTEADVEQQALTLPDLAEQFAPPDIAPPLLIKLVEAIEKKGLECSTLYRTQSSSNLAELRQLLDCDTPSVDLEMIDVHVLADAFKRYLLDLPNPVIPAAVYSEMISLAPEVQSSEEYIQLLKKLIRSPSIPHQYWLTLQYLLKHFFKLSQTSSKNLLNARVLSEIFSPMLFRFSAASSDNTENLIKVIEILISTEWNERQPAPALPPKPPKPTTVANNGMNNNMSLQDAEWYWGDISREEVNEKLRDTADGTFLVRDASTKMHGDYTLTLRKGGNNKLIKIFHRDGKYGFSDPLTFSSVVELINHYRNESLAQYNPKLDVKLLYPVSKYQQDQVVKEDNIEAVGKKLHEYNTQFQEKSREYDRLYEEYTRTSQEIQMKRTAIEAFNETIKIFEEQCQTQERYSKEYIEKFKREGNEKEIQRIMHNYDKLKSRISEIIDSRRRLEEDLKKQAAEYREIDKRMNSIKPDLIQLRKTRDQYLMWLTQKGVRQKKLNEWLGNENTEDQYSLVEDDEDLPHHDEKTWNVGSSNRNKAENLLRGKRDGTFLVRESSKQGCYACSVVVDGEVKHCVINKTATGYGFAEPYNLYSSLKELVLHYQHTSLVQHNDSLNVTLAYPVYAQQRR

For `Cc1nc(NC(=O)N2CCC[C@H]2C(N)=O)sc1-c1ccnc(C(C)(C)C(F)(F)F)c1` [alpelisib], the “compound mutant PI3K pathway signaling on PI3K inhibition” value in data set [1] and in data set [3] was “decreases to similar levels” each time. Moreover, the values for the progression free survival in data set [2] (WT PIK3CA tumors), in data set [2] (double PIK3CA mutant tumors) and in data set [2] (single PIK3CA mutant tumors) were 7.5 weeks, 48 weeks and 20 weeks, respectively. Besides, the figures for the “PFS (duration of response to PI3K inhibition)” value in data set [2] (dual PIK3CA mutant patients) and in data set [2] (single PIK3CA mutant patients) were 48 weeks and 17 weeks, respectively. Besides, the “patients with clinical benefit rate >30 weeks” value in data set [2] (dual mutant tumors, p=0.044 vs single) came to 67%; in data set [2] (single mutant tumors) it was 23%. Further, in data set [2] (not statistically significant), the “median PFS, double mutant vs single mutant or WT tumors” value is given as “longer median PFS”. Besides, the “IC50 values, recombinant PI3Kα complexes” value in data set [4] is “similar”. The cell viability entry in data set [5] (Example 1, compound PIK3CA mutants vs single mutants) is on record as “more significant decrease in cell viability”. Moreover, the “sensitivity of mutations in trans” value in data set [5] (MCF10A E726K/H1047R in trans compared to cis mutants) is reported as “less sensitive”; in data set [5] (MCF10A E726K/H1047R in trans compared to the single major mutant), “no more sensitive”. In addition, the “sensitivity of cell growth to PI3Kα inhibition” value in data set [5] (MCF10A) is “more sensitive”. Further, in data set [5] (MCF10A, E545K- and H1047R-containing compound mutants vs single mutants), the “fold of inhibition of cell growth” value is listed as “increased fold of inhibition”.
Take `Cc1nc(-c2cn3c(n2)-c2ccc(-c4cnn(C(C)(C)C(N)=O)c4)cc2OCC3)n(C(C)C)n1` [taselisib]: the overall response rate came to 20.3% in data set [6] (ctDNA PIK3CA mutant total population), 30.2% in data set [6] (multiple ctDNA PIK3CA mutant subpopulation) and 18.1% in data set [6] (single ctDNA PIK3CA mutant subpopulation). For the same compound, in data set [6] (taselisib arm, waterfall plot (FIG. 19B)), the “tumor shrinkage, multiple vs single mutant tumors” value is reported as “tumor shrinkage more”.
For `C[C@]12CC[C@@H]3c4ccc(O)cc4C[C@@H](CCCCCCCCC[S+]([O-])CCCC(F)(F)C(F)(F)F)[C@H]3[C@@H]1CC[C@@H]2O` (stereo partly drawn) [fulvestrant], the “PFS of dual mutant patients vs patients with WT tumors” value in data set [7] (fulvestrant) is “worse PFS”. Besides, the “PFS of patients with dual PIK3CA-mutant tumors vs single mutant or WT tumors” value in data set [7] (fulvestrant alone) is listed as “do not have improved”.
Turning to “p110α E545K, untagged, full length human”, the “thermal shift assay (soluble p110α by Western blot across a temperature gradient)” value in data set [8] is recorded as “Among single mutants, E545K is the most thermally unstable”.
As for `CO[C@H]1C[C@@H]2CC[C@@H](C)[C@@](O)(O2)C(=O)C(=O)N2CCCC[C@H]2C(=O)O[C@H]([C@H](C)C[C@@H]2CC[C@@H](OCCO)[C@H](OC)C2)CC(=O)[C@H](C)/C=C(\C)[C@@H](O)[C@@H](OC)C(=O)[C@H](C)C[C@H](C)/C=C/C=C/C=C/1C` [everolimus], the “sensitivity to downstream PI3K pathway inhibitor” value in data set [5] (MCF10A, cis mutants compared to single mutants, serum starvation 4 days) is given as “more sensitive”.
For orientation: IC50 means the concentration that gives 50% inhibition. Regarding `C[C@H](Nc1ccc2c(c1)OCCn1cc(N3C(=O)OC[C@H]3C(F)F)nc1-2)C(N)=O` [GDC-0077], the “IC50 values, recombinant PI3Kα complexes” value in data set [4] was “similar”. Further, the “sensitivity of cell growth to PI3Kα inhibition” value in data set [5] (MCF10A) is reported as “more sensitive”. In data set [5] (read-out: IC50 [GDC-0077] of MCF10A E545K cells, MCF10A E545K cells, per FIG. 6G), the concentration for half-maximal inhibition (IC50) stood at 62.5 nM.

Values taken from US20210189503A1, “BIOMARKERS FOR DETERMINING RESPONSIVENESS OF A CANCER TO PI3K INHIBITORS” (MEMORIAL SLOAN-KETTERING CANCER CENTER, priority 2018, published 2021).
